The source of these data is patent publication US20050244359A1, “Topical regulation of triglyceride metabolism” (priority 2004, published 2005).

The subject of this assay is epidermal equivalents. Briefly: Triglyceride production in living skin samples (epidermal equivalents, MatTek), HPTLC analysis. Format: cell-based. Conditions: for net intensity (HPTLC, triglycerides): about 0.1 percent fatty acid, epidermal equivalents cultured for three days, triglycerides extracted in chloroform/methanol (2:1). As for the experimental part:
A set of living skin samples, epidermal equivalents, obtained from MatTek, is tested with a sample of about 0.1 percent palmitoleic acid and about 0.1 percent oleic acid. A media is prepared of a transwell membrane at the air/liquid interface and is cultured for three days. At the end of the incubation period, each skin square is homogenized and its triglycerides extracted in chloroform/methanol (2:1). This is followed by HPTLC analysis. […] After one day of application it is surprising to find the increase in triglyceride concentration in the epidermal equivalents treated with palmitoleic acid. […] The net intensity of oleic acid is 859. In contrast, palmitoleic acid has a net intensity of 1324 and 1212, an average of 1268 net intensity.

“And” between values parts separate entries of the source, which are not always exact repeats. Equal entries are not always repeated.

Consider `CCCCCCCC/C=C\CCCCCCCC(=O)O` [oleic acid, reference compound], for which the “net intensity (HPTLC, triglycerides)” value was 859. In addition, the “effect on triglyceride production (in words)” value (epidermal equivalents, HPTLC) is given as “little effect”.
In the case of `CCCCCC/C=C\CCCCCCCC(=O)O` [palmitoleic acid], the “net intensity (HPTLC, triglycerides)” value is 1324 and 1212. Further, the “average net intensity (HPTLC, triglycerides)” value (about 0.1 percent, average of two values) came to 1268. For the same compound, under “about 0.1 percent, epidermal equivalents, HPTLC”, the “increase in triglyceride production” value is around 400%. Further, the “effect on triglyceride production (in words)” value (epidermal equivalents, HPTLC) was “time and dose-dependent increase in triglyceride production”.
